# From patent US20240216395A1, “19-NOR C3,3-DISUBSTITUTED C21 -N-PYRAZOLYL STEROID FOR USE IN TREATING MAJOR DEPRESSIVE DISORDER AND […]” (priority 2021, published 2024)
# Several values for one entry are separate records, joined by “and”; a condition that tells them apart may be missing. Identical values can stand only once.
# How the values were obtained:
# [1] = test system: adult female subjects with severe postpartum depression (PPD); assay: Phase 3 placebo-controlled study of Compound (1) 30 mg QD for 14 days in PPD (NCT02978326, ROBIN): efficacy and post hoc analyses; type: in vivo, human
# Protocol: Example 4. A Multicenter, Randomized, Double-Blind, Parallel-Group, Placebo-Controlled Study Evaluating the Efficacy, Safety, and Pharmacokinetics of Compound (1) in the Treatment of Adult Female Subjects with Severe Postpartum Depression
# This was a multicenter, randomized, double-blind, parallel-group, placebo-controlled study of the efficacy, safety, and pharmacokinetics of Compound (1) in adult subjects diagnosed with severe PPD.
# Randomized subjects received 30 mg QD of study drug (Compound (1) Capsules or placebo). Those subjects who could not tolerate 30 mg QD will received 20 mg QD for the remainder of the Treatment Period. Subjects who experienced intolerable adverse events (AEs) at the 20 mg QD dose level could be discontinued from study treatment at the discretion of the Investigator. Subjects were instructed to take the study drug with food. Study drug was self-administered by subjects in the evening (8:00 pm±30 min) on an outpatient basis for the entire 14-day Treatment Period. Study drug administration was monitored via a follow-up call from the site each evening (within approximately 1 hour following the scheduled evening dose) on Days 1 to 14.
# The primary efficacy endpoint was the change from baseline in HAM-D total score at the end of the Treatment Period (Day 15). The HAM-D total score was calculated as the sum of the 17 individual item scores.
# Secondary endpoints included: • Change from baseline in the HAM-D total score at all time points other than Day 15; • HAM-D Response defined as a 50% or greater reduction from baseline in HAM-D total score; • HAM-D Remission defined as a HAM-D total score of ≤7; • Change from baseline in MADRS total score at Day 15 and other time points; • CGI-I Response defined as “very much improved” or “much improved”; • Change from baseline in HAM-A total score at Day 15 and other time points; • Changes from baseline in HAM-D subscales and individual item scores at Day 15 and other time points
# The change from baseline in HAM-D total score was analyzed using a mixed effects model for repeated measures (MMRM); the model included center, treatment, baseline HAM-D total score, assessment time point, and time point-by-treatment as explanatory variables. All post-baseline time points were included in the model. The primary comparison was between Compound (1) and placebo at the 15-day time point. Model-based point estimates (e.g., least squares [LS] means), 95% confidence intervals, and p-values were reported. An unstructured covariance structure was used to model the within-subject errors. Continuous secondary and other variables were analyzed using similar methods.
# Binary efficacy endpoints, including responder and remission endpoints, were summarized and analyzed using the generalized estimating equation method.
# As indicated in Example 4, women (N=151), ages 18-45, ≤6 months postpartum, diagnosed with PPD (defined as a major depressive episode with onset in the 3rd trimester or ≤4 weeks postpartum), and a baseline HAMD-17 total score ≥26, were randomized to study drug in an outpatient setting.
# Patients were randomized 1:1 to receive oral Compound (1) 30 mg or placebo once daily for 14 days, with 4 weeks follow-up. The change from baseline (CFB) vs placebo in HAMD-17 at Day 15 was the primary endpoint. Treatment emergent adverse events (TEAEs) were assessed throughout the study.
# Post hoc analyses explored concurrent anxiety and depression improvement using a combination of scales at Days 15 and 45: (1) HAMD-17≤7+HAM-A≤7, or (2) MADRS ≤10+HAM-A≤7. Depression improvement was defined as either a HAMD-17 total score ≤7, or a MADRS total score […]. Improvement in anxiety symptoms was defined as a HAM-A total score ≤7.
# CFB in HAMD-17 total score was evaluated using the least-squares mean from a mixed effect model for repeated measures. […]
# [2] = test system: adult subjects with major depressive disorder (MDD); assay: Phase 3 MDD study (NCT04442490): safety and tolerability (TEAEs, C-SSRS, PWC-20); type: in vivo, human
# Protocol: • Incidence and severity of adverse events/serious adverse events • Changes from baseline in clinical laboratory measures, vital signs, and electrocardiograms (ECGs) • Suicidal ideation and behavior using the Columbia Suicide Severity Rating Scale (C-SSRS) • Potential withdrawal symptoms using the 20-item Physician Withdrawal Checklist (PWC-20)
# Safety and tolerability of study drug was evaluated by incidence of adverse events/serious adverse events, vital signs, clinical laboratory evaluations, and 12-lead ECG.
# Suicidality was monitored by the C-SSRS. Potential withdrawal symptoms after discontinuation of Compound (1) was assessed using the PWC-20.
# Safety and tolerability were evaluated by incidence and severity of adverse events (AEs), serious adverse events (SAEs), changes from baseline in clinical laboratory evaluations, vital signs, and 12-lead electrocardiography. Suicidality was monitored by the Columbia Suicide Severity Rating Scale (C-SSRS). The Physician Withdrawal Checklist-20 total score (PWC-20TS) was used to monitor for the presence of potential withdrawal symptoms following discontinuation of Compound (1)-50 mg.
# [3] = 50 mg (n = 268), through Day 42
compound,measurement,setting,value
"C[C@@]1(O)CC[C@H]2[C@H](CC[C@@H]3[C@@H]2CC[C@]2(C)[C@@H](C(=O)Cn4cc(C#N)cn4)CC[C@@H]32)C1 [Compound (1), 1-(2-((3R,5R,8R,9R,10S,13S,14S,17S)-3-hydroxy-3,13-dimethylhexadecahydro-1H-cyclopenta[a]phenanthren-17-yl)-2-oxoethyl)-1H-pyrazole-4-carbonitrile]",HAMD-17 early insomnia item mean reduction from baseline,[1],−1.3
same,HAMD-17 late insomnia item mean reduction from baseline,[1],−1.3
same,HAMD-17 middle insomnia item mean reduction from baseline,[1],−1.3
same,EPDS-3A least square mean CFB,[1]; Day 8,−2.2
same,"Concurrent improvement HAMD-17 ≤ 7 and HAM-A ≤ 7, OR (95% CI) vs placebo",[1]; Day 15,"2.75 (1.30, 5.84)"
same,"Concurrent improvement MADRS ≤ 10 and HAM-A ≤ 7, OR (95% CI) vs placebo",[1]; Day 15,"2.35 (1.15, 4.80)"
same,LS mean difference vs placebo (as printed after HAMD-17 CFB),[1]; Day 15,−2.4
same,MADRS Remission rate,[1]; Day 15,54.1%
same,MADRS Response rate,[1]; Day 15,73.0%
same,HAMD-17 total score CFB,[1]; Day 15 (primary endpoint),−17.8
same,"Concurrent improvement HAMD-17 ≤ 7 and HAM-A ≤ 7, OR (95% CI) vs placebo",[1]; Day 45,"3.45 (1.66, 7.16)"
same,"Concurrent improvement MADRS ≤ 10 and HAM-A ≤ 7, OR (95% CI) vs placebo",[1]; Day 45,"3.09 (1.50, 6.36)"
same,EPDS-3A least square mean CFB,[1]; Day 45,−3.6
same,HAM-A Remission rate,[1]; day 3,27.0%
same,"HAMD-17-Ins CFB, Compound (1)-placebo difference",[1]; day 3,−0.841
same,HAMD-17 A/S least squares mean CFB,[1]; day 3,−3.8
same,HAM-A Response rate,[1]; day 8,69.3%
same,EPDS remission (<13) rate,[1]; day 15,64%
same,HAMD-17 A/S Response rate,[1]; day 15,68.9%
same,HAMD-17 Remission rate,[1]; day 15,45%
same,HAMD-17 Response rate,[1]; day 15,72%
same,NNT for EPDS remission <13,[1]; day 15,6
same,"NNT, rapid outcomes",[1]; day 15,5
same,HAMD-17 A/S least squares mean CFB,[1]; day 45,−5.7
same,"NNT, sustained outcomes",[1]; day 45,5
same,PHQ-9 total score least squares mean decrease,[1]; day 45,−11.8
same,"SF-36v2 domains (SF, MH, PF, RP, BP) and MCS vs placebo",[1]; day 45,statistically significant improvements
same,Sustained HAMD-17 Remission rate,[1]; days 15 and 45,37%
same,Sustained HAMD-17 Response rate,[1]; days 15 and 45,59%
same,"AEs of loss of consciousness, weight gain, sexual dysfunction, euphoria",[2]; 50 mg,"no loss of consciousness, weight gain, sexual dysfunction, or euphoria reported"
same,Overall tolerability,[2]; 50 mg,generally well-tolerated
same,TEAE Alanine aminotransferase increased,[2]; [3],3 (1.1%) n (%)
same,TEAE Dry mouth,[2]; [3],10 (3.7%) n (%)
same,TEAE Tremor,[2]; [3],8 (3.0%) n (%)
same,Any TEAE,"[2]; 50 mg, ADT use at baseline=Yes (N = 79)",50 (63.3) n (%)
same,TEAE Abnormal dreams,"[2]; 50 mg, ADT=Yes (N = 79)",2 (2.5) n (%)
same,TEAE Alanine aminotransferase increased,"[2]; 50 mg, ADT=Yes (N = 79)",2 (2.5) n (%)
same,TEAE Diarrhea,"[2]; 50 mg, ADT=Yes (N = 79)",4 (5.1) n (%)
same,TEAE Disturbance in attention,"[2]; 50 mg, ADT=Yes (N = 79)",0 n (%)
same,TEAE Dizziness,"[2]; 50 mg, ADT=Yes (N = 79)",10 (12.7) n (%)
same,TEAE Dry mouth,"[2]; 50 mg, ADT=Yes (N = 79)",4 (5.1) n (%)
same,TEAE Flatulence,"[2]; 50 mg, ADT=Yes (N = 79)",0 n (%)
same,TEAE Gastroenteritis,"[2]; 50 mg, ADT=Yes (N = 79)",2 (2.5) n (%)
same,TEAE Headache,"[2]; 50 mg, ADT=Yes (N = 79)",9 (11.4) n (%)
same,TEAE Insomnia,"[2]; 50 mg, ADT=Yes (N = 79)",2 (2.5) n (%)
same,TEAE Nausea,"[2]; 50 mg, ADT=Yes (N = 79)",1 (1.3) n (%)
same,TEAE Restlessness,"[2]; 50 mg, ADT=Yes (N = 79)",2 (2.5) n (%)
same,TEAE Sedation,"[2]; 50 mg, ADT=Yes (N = 79)",7 (8.9) n (%)
same,TEAE Somnolence,"[2]; 50 mg, ADT=Yes (N = 79)",9 (11.4) n (%)
same,TEAE Suicidal ideation,"[2]; 50 mg, ADT=Yes (N = 79)",3 (3.8) n (%)
same,TEAE Tremor,"[2]; 50 mg, ADT=Yes (N = 79)",3 (3.8) n (%)
same,TEAE Upper respiratory tract infection,"[2]; 50 mg, ADT=Yes (N = 79)",2 (2.5) n (%)
same,TEAE Urinary tract infection,"[2]; 50 mg, ADT=Yes (N = 79)",2 (2.5) n (%)
same,C-SSRS: No suicidal ideation/behavior,"[2]; 50 mg, Day 8 (N = 255)",237 (92.9) n (%)
same,C-SSRS: Suicidal behavior,"[2]; 50 mg, Day 8 (N = 255)",0 n (%)
same,C-SSRS: Suicidal ideation,"[2]; 50 mg, Day 8 (N = 255)",18 (7.1) n (%)
same,C-SSRS: No suicidal ideation/behavior,"[2]; 50 mg, Day 15 (N = 248)",229 (92.3) n (%)
same,C-SSRS: Suicidal behavior,"[2]; 50 mg, Day 15 (N = 248)",0 n (%)
same,C-SSRS: Suicidal ideation,"[2]; 50 mg, Day 15 (N = 248)",19 (7.7) n (%)
same,"PWC-20 total score change from first assessment (CFFA), mean (SD)","[2]; 50 mg, Day 18",−1.2 (4.3) and −1.2 (4.32)
same,Withdrawal symptoms by PWC-20,"[2]; 50 mg, Day 18 or 21",No signals for withdrawal symptoms
same,"PWC-20 total score change from first assessment (CFFA), mean (SD)","[2]; 50 mg, Day 21",−0.3 (4.6) and −0.3 (4.37)
same,C-SSRS: No suicidal ideation/behavior,"[2]; 50 mg, Day 42 (N = 240)",223 (92.9) n (%)
same,C-SSRS: Suicidal behavior,"[2]; 50 mg, Day 42 (N = 240)",0 n (%)
same,C-SSRS: Suicidal ideation,"[2]; 50 mg, Day 42 (N = 240)",17 (7.1) n (%)
same,Suicidal ideation/behavior signal by C-SSRS,"[2]; 50 mg, throughout the study",No signal of increased suicidal ideation/behavior
same,Patients with a TEAE whose TEAEs were mild and moderate in severity,[2]; clinical trial of Example 1,95.0%
